Assay results reported in patent US8940774B2, “Tris-Quaternary Ammonium Salts and Methods for Modulating Neuronal Nicotinic Acetylcholine Receptors” (University of Kentucky Research Foundation, priority 2005, dated 2015).
Where two headings read alike, the source gives them in different places.

Experiments:
[1] = biological target: T1, Rat Striatal Nicotinic Receptors (Rattus norvegicus, UniProt P09483+P12390); test: Inhibition of [3H]Nicotine (NIC) binding assay, rat striatal membranes; conditions: % inhibition at 100 nM concentration of analog, 3 nM [3H]NIC
T1 construct: from tissue; host or cells: rat striatal membranes
T1 sequence (P09483 31-630): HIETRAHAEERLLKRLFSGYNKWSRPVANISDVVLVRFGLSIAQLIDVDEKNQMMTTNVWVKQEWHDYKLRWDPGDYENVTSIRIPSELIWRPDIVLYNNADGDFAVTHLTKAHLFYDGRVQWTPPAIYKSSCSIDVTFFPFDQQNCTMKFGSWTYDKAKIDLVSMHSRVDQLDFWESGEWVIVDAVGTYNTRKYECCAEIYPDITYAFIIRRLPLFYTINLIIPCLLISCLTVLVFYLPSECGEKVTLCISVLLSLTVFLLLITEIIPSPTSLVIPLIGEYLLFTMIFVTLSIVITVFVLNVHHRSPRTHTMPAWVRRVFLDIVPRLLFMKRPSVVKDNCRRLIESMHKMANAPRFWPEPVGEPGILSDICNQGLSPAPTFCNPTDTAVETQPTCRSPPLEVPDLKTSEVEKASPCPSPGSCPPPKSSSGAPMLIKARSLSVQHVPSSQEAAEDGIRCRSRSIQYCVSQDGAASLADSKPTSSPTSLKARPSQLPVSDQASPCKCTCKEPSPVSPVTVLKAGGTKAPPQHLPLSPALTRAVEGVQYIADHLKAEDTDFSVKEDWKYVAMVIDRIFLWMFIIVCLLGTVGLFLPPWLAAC
T1 sequence (P12390 25-500): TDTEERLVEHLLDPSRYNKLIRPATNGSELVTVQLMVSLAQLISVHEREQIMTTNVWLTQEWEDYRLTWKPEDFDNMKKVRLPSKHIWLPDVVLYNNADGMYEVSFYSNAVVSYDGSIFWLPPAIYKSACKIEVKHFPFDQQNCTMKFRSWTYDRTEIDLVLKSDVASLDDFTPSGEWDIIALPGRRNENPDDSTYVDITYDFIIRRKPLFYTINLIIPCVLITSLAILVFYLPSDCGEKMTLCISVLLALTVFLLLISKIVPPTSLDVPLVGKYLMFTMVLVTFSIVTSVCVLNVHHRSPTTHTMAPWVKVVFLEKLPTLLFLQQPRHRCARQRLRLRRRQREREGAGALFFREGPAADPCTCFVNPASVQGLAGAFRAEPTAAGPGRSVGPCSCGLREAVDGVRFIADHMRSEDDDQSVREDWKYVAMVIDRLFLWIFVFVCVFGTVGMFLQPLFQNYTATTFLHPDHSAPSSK
Experimental: Striata from two rats were dissected, pooled, and homogenized with a Tekmar polytron in 10 vol of ice-cold modified Krebs-HEPES buffer (20 mM HEPES, 118 mM NaCl, 4.8 mM, KCl, 2.5 mM CaCl2, 1.2 mM MgSO4, adjusted to pH 7.5). The homogenates were incubated at 37° C. for 5 minutes and centrifuged at 15,000 g for 20 minutes. The pellet was resuspended in 10 volumes of ice-cold MilliQ water, incubated for 5 minutes at 37° C., and centrifuged at 15,000 g for 20 minutes. The second pellet was then resuspended in 10 volumes of fresh ice-cold 10% Krebs-HEPES buffer, incubated at 37° C., and centrifuged at 15,000 g for 20 minutes. The latter sequence of resuspension, incubation and centrifugation was repeated. The pellet was frozen under fresh 10% Krebs-HEPES buffer and stored at −40° C. until assay. Upon assay, the pellet was resuspended in Krebs-HEPES buffer, incubated at 37° C. for 5 minutes, and centrifuged at 15,000 g for 20 minutes. The final pellet was resuspended in 3.6 mL ice-cold MilliQ water which provided for approximately 200 μg protein per 100 μL aliquot. Competition assays were performed in duplicate in a final volume of 200 μL Krebs-HEPES buffer containing […] Tris buffer (pH 7.5 at 4° C.). Reactions were initiated by addition of 100 μL of membrane suspension to 3 nM [^3H]NIC (50 μL) and one of at least nine concentrations of analog (50 μL). After a 90 minute incubation at 4° C., reactions were terminated by dilution of the samples with 3 mL of ice-cold Krebs-HEPES buffer followed immediately by filtration through Whatman GF/B glass fiber filters (presoaked in 0.5% polyethyleneimine) using a Brandel Cell Harvester. Filters were rinsed three times with 3 mL of ice-cold Krebs-HEPES buffer, transferred to scintillation vials, and 5 mL scintillation cocktail (Research Products international Corp., Mt. Prospect, Ill.) added. Nonspecific binding determined in triplicate was defined as binding in the presence of 10 μM NIC. Binding parameters were determined using the weighted, least squares non-linear regression. The tris-quaternary ammonium salts were evaluated for their ability to displace [^3H]NIC binding from rat striatal membranes.
(§1) Data are % inhibition at 100 nM concentration of analog for at least 1-3 independent experiments. Specific binding in the [^3H]NIC binding assay is calculated at the difference between the total binding of [^3H]NIC and nonspecific binding in the presence of 10 μM cold nicotine. Specific binding for the [^3H]MLA binding assay is calculated as the difference between the total binding of 2.5 nM [^3H]MLA to the receptors alone and its nonspecific binding in the presence of 1 μM cold MLA. Analog-induced inhibition of nicotine-evoked [^3H]DA release is calculated as a percent of that in the absence of analog.

[2] = test system: NIC-evoked [3H]DA release from rat striatal slices; test: Nicotine-evoked [3H]dopamine release assay, superfused rat striatal slices; type: cell-based; conditions: 100 nM analog superfused 60 minutes prior to NIC (10 μM), percent of that in the absence of analog
Experimental: Rat striatal slices (500 μm thickness, 6-8 mg wet weight) were incubated for 30 minutes in Krebs buffer (118 mM NaCl, 4.7 mM KCl, 1.2 mM MgCl2, 1.0 mM NaH2PO4, 1.3 mM CaCl2, 11.1 mM glucose, 25 mM NaHCO3, 0.11 mM L-ascorbic acid and 0.004 mM disodium EDTA; pH 7.4, and saturated with 95% O2/5% CO2) in a metabolic shaker at 34° C. Slices were rinsed with 15 mL of fresh buffer and incubated for an additional 30 minutes in fresh buffer containing 0.1 μM [^3H]dopamine (DA; 6 slices/3 mL). Subsequently, slices were rinsed with 15 mL of fresh buffer and transferred to a glass superfusion chamber. Slices were superfused (1.0 mL/min) for 60 minutes with Krebs buffer containing nomifensine (10 μM) and pargyline (10 μM) and maintained at 34° C., pH 7.4 with continual aeration (95% O2/5% CO2). Two five minute samples (5 mL each) were collected to determine basal outflow of [^3H]DA. Analogs were added to the superfusion buffer after the collection of the second sample and remained in the buffer until 12 consecutive five minute samples were collected. Subsequently, S-(−)-nicotine (10 μM) was added to the buffer and an additional 12 consecutive five minute samples were collected. At the end of the experiment, each slice was solubilized and the [^3H] content of the tissue determined.
Radioactivity in the superfusate and tissue samples were determined by liquid scintillation spectroscopy. Fractional release for tritium collected in each sample was divided by the total tritium present at the time of sample collection and was expressed as a percentage of total tritium. Basal [^3H] outflow was calculated from the average of the tritium collected in the two five-minute samples just before addition of the analog. The sum of the increase in collected tritium resulting from either exposure to the test compound or exposure to S-(−)-nicotine in the absence cod presence of the test compound equaled total [^3H] overflow. [^3H] Overflow was calculated by subtracting the [^3H] outflow during an equivalent period of prestimulation from the values in samples collected during and after drug exposure. Inasmuch as the radiolabelled compounds were not separated and identified, the tritium in the superfusate is referred to as either [^3H] outflow or [^3H] overflow, rather than [^3H]DA. [^3H] Overflow primarily represents [^3H]DA in the presence of nomifesine and pargyline in the superfusion buffer. […]
Analogs were also evaluated for their ability to inhibit NIC evoked [^3H]DA release. In these experiments, the striatal slices were superfused for 60 minutes with 100 nM concentration of the analogs prior to NIC (10 μM) exposure. Antagonist activity was evaluated by comparing the NIC-evoked [^3H] overflow in the absence and presence of the analogs. The relative order of potency of the analogs for inhibition of NIC-evoked [^3H]DA release from rat striatal slices is illustrated in Table 1.
as §1

[3] = biological target: T2, α7-type neuronal nicotinic acetylcholine receptors (Rattus norvegicus, UniProt Q05941); test: Inhibition of [3H]Methyllycaconitine (MLA) binding assay, rat brain membranes; conditions: for inhibition at 0.1 µM: read-out: Inhibition of [3H]MLA binding
T2 construct: from tissue; host or cells: rat brain membranes (whole brain without cortex, striatum and cerebellum)
T2 sequence (Q05941 23-502): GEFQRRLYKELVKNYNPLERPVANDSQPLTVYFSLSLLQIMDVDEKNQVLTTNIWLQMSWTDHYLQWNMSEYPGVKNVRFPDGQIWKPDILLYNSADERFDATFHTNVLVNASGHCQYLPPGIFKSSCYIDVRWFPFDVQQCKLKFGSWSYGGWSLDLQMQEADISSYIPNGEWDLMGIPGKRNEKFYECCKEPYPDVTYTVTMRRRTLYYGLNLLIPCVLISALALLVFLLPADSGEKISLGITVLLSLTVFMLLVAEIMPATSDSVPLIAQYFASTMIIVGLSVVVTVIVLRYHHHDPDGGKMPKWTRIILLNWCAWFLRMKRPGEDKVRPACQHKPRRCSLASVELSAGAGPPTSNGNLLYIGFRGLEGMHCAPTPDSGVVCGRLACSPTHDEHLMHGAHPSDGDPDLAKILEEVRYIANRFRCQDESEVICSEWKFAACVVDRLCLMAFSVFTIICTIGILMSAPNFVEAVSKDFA
Experimental: Rat brain was dissected into the whole brain tissue without cortex, striatum and cerebellum and was frozen in liquid nitrogen and stored at −70° C. until use. The brain tissue was homogenized with a Tekmar Polytron (setting 40) in 20 volumes of ice-cold hypotonic buffer (2 mM HEPES, 14.4 mM NaCl, 0.15 mM KCl, 0.2 mM CaCl2 and 0.1 mM MgSO4, pH=7.5). The homogenate was incubated at 37° C. for 10 minutes and centrifuged at 25,000 g for 15 minutes at […] The pellet was washed 3 times more by resuspension in 20 volumes of the same buffer and centrifugation at the above parameters. The final pellet was stored at −20° C. under 4.6 mL of the incubation buffer and was suspended just before the incubation with radioligand.
The binding of [^3H]MLA to probe α7-type neuronal nicotinic acetylcholine receptors was measured using a modification of the method of Davies at al., “Characterisation of the binding of [^3H]methyllycaconitine (MLA): a radioligand for labelling α7-type neuronal nicotinic acetylcholine receptors,” Neuropharmacology, 38, 679-690 (1999). [^3H]MLA (25.4 Ci/mmol) was purchased from Tocris Cookson Ltd., Bristol, U.K. Binding was performed in duplicate, in a final volume of 250 μL of the incubation medium, containing 20 mM HEPES, 144 mM NaCl, 1.5 mM KCl, 2 mM CaCl2, 1 mM MgSO4 and 0.05% BSA, pH=7.5. Reaction was initiated by the addition of 100 μL of membrane suspension to the samples containing a desired concentration of test compounds and […] [^3H]MLA (final concentration) and incubated for 2 hours it room temperature. Total binding was measured in the absence of unlabelled ligand, and nonspecific binding was determined by the presence of 1 μM unlabelled MLA. The binding reaction was terminated by dilution of samples with 3 mL of ice-cold incubation buffer followed by immediate filtration through glass fiber filters (S&S, grade #32, presoaked in 0.5% polyethylenimine) using a Brandel harvester system. Filters were rinsed three times with 3 mL of ice-cold buffer, transferred to scintillation vials and 4 mL of scintillation cocktail was added. Protein was measured using the Bradford dye-binding procedure with bovine serum albumin as the standard.
The tris-quaternary ammonium salts were evaluated for their ability to displace [^3H]MLA binding from rat brain membranes.
as §1

[4] = % inhibition at 100 nM concentration of analog, rat brain membranes, 2.5 nM [3H]MLA

Compound	inhibition at 0.1 µM [1]	inhibition at 0.1 µM [2]	inhibition at 0.1 µM [3, 4]	inhibition at 0.1 µM [3]	Ki ([3]; read-out: K1 value, displacement of [3H]MLA binding)
Cc1ccc[n+](CCCC#Cc2cc(C#CCCC[n+]3cccc(C)c3)cc(C#CCCC[n+]3cccc(C)c3)c2)c1 [GZ550A, 1,3,5-tris-[5-(3-picolinium)-pent-1-ynyl]-benzene tribromide]	10 ± 1.9%	46%	0%		
C(#Cc1cc(C#CCCC[n+]2cccc(-c3ccccc3)c2)cc(C#CCCC[n+]2cccc(-c3ccccc3)c2)c1)CCC[n+]1cccc(-c2ccccc2)c1 [GZ550B, 1,3,5-tris-[5-(3-phenyl-pyridinium)-pent-1-ynyl]-benzene tribromide]	15 ± 0.9%	49%	39 ± 2.2%		
C(#Cc1cc(C#CCCC[n+]2cccc3ccccc32)cc(C#CCCC[n+]2cccc3ccccc32)c1)CCC[n+]1cccc2ccccc21 [GZ552A, 1,3,5-tris-[5-(1-quinolinium)-pent-1-ynyl]-benzene tribromide]	7 ± 3.8%	72%	21 ± 6%		
C(#Cc1cc(C#CCCC[n+]2ccc3ccccc3c2)cc(C#CCCC[n+]2ccc3ccccc3c2)c1)CCC[n+]1ccc2ccccc2c1 [GZ552B, 1,3,5-tris-[5-(2-isoquinolinium)-pent-1-ynyl]-benzene tribromide]	9.2 ± 5%	49%	4.5 ± 2.6%		
Cc1cc(C)c[n+](CCCC#Cc2cc(C#CCCC[n+]3cc(C)cc(C)c3)cc(C#CCCC[n+]3cc(C)cc(C)c3)c2)c1 [GZ553A, 1,3,5-tris-[5-(3,5-lutidinium)-pent-1-ynyl]-benzene tribromide]	8.9 ± 2.9%	31%	0%		
Cc1cc[n+](CCCC#Cc2cc(C#CCCC[n+]3ccc(C)c(C)c3)cc(C#CCCC[n+]3ccc(C)c(C)c3)c2)cc1C [GZ553B, 1,3,5-tris-[5-(3,4-lutidinium)-pent-1-ynyl]-benzene tribromide]	4 ± 1.4%	0%	1.8 ± 1.8%		
Cc1cccc[n+]1CCCC#Cc1cc(C#CCCC[n+]2ccccc2C)cc(C#CCCC[n+]2ccccc2C)c1 [GZ554A, 1,3,5-tris-[5-(2-picolinium)-pent-1-ynyl]-benzene tribromide]	4.5 ± 2%	68%	0%		
Cc1cc[n+](CCCC#Cc2cc(C#CCCC[n+]3ccc(C)cc3)cc(C#CCCC[n+]3ccc(C)cc3)c2)cc1 [GZ554B, 1,3,5-tris-[5-(4-picolinium)-pent-1-ynyl]-benzene tribromide]	21 ± 4.5%	34%	0%		
Cc1ccc[n+](CCCCCc2cc(CCCCC[n+]3cccc(C)c3)cc(CCCCC[n+]3cccc(C)c3)c2)c1 [GZ555A, 1,3,5-tris-[5-(3-picolinium)-pentyl]-benzene tribromide]	14 ± 6.1%	42%	1.2 ± 1.2%		
Cc1cccc[n+]1CCCCCc1cc(CCCCC[n+]2ccccc2C)cc(CCCCC[n+]2ccccc2C)c1 [GZ555B, 1,3,5-tris-[5-(2-picolinium)-pentyl]-benzene tribromide]	8.6 ± 7.2%	25%	0%		
Cc1cc[n+](CCCCCc2cc(CCCCC[n+]3ccc(C)cc3)cc(CCCCC[n+]3ccc(C)cc3)c2)cc1 [GZ555C, 1,3,5-tris-[5-(4-picolinium)-pentyl]-benzene tribromide]	6 ± 3.4%	37 ± 17%	0%		
c1ccc2c(c1)ccc[n+]2CCCCCc1cc(CCCCC[n+]2cccc3ccccc32)cc(CCCCC[n+]2cccc3ccccc32)c1 [GZ556A, 1,3,5-tris-[5-(1-quinolinium)-pentyl]-benzene tribromide]	5.7 ± 5.7%	8 ± 6.4%		6.8 ± 0.9%	
c1ccc2c[n+](CCCCCc3cc(CCCCC[n+]4ccc5ccccc5c4)cc(CCCCC[n+]4ccc5ccccc5c4)c3)ccc2c1 [GZ556B, 1,3,5-tris-[5-(2-isoquinolinium)-pentyl]-benzene tribromide]	8.4 ± 7.6%	28 ± 11%	2.5 ± 1.5%		
α-bungarotoxin [reference compound]					0.0286 ± 0.0054 µM
